The source made the active and inactive calls. No cut-off for these calls is given here.
Key:
T47D [1] = assay: cells; settings: Homo sapiens, 72 h
Estrogen receptor beta [2] = target: T1, Estrogen receptor beta (Homo sapiens, UniProt Q92731)
T47D [3] = assay: cells; settings: Homo sapiens, 72 h; remark: listed apart in the source
MDA-MB-231 = assay: cells; settings: Homo sapiens, MDA-MB-231, 72 h
Estrogen receptor = target: T2, Estrogen receptor (Homo sapiens, UniProt P03372)
T2 sequence (P03372 whole entry): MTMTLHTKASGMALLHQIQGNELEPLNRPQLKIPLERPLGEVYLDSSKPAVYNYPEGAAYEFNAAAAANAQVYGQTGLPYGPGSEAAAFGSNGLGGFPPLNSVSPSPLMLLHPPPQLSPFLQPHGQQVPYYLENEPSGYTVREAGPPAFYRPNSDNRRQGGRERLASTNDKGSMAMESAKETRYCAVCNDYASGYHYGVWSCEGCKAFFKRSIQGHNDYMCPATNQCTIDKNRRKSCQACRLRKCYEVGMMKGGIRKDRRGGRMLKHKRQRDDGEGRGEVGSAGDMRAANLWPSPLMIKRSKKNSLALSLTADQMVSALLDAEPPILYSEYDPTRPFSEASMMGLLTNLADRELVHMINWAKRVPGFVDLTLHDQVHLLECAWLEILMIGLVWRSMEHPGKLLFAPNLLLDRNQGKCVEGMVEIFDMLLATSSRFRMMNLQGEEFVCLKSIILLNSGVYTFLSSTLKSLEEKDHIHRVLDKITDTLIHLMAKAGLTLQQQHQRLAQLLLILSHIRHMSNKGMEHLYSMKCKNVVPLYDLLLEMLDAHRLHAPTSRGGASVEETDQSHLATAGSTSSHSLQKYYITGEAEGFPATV

[4] = Selectivity index, ratio of Ki for ERalpha (unknown origin) to Ki for ERbeta (unknown origin)
in vitro = settings: human, MCF-10A cells
T47D [5] = assay: cells; settings: Homo sapiens, 72 h; remark: listed apart in the source
[6] = Selectivity ratio of relative binding affinity for ERalpha (unknown origin) to relative binding affinity to ERbeta (unknown origin)
Estrogen receptor beta [7] = target: T1, Estrogen receptor beta; assay: Binding affinity to ERbeta (unknown origin) assessed as relative binding affinity incubated for 2 hrs by fluorescence polarization assay relative to estradiol
MCF7 = assay: cells; settings: Homo sapiens, MCF7, 72 h
cells = settings: Homo sapiens, Tamoxifen-resistant LCC2 cell, 72 h
[8] = target: Protein cereblon/Estrogen receptor (Homo sapiens) (UniProt P03372+Q96SW2); assay: PROTAC activity at CRBN/wild type ERalpha in ER-positive human MCF7 cells assessed as induction of ERalpha degradation at 1 uM incubated for 12 hrs by Western blot analysis; assay type: cell-based
Protein cereblon/Estrogen receptor (Homo sapiens), sequence (Q96SW2 whole entry, looked up, one chain of several): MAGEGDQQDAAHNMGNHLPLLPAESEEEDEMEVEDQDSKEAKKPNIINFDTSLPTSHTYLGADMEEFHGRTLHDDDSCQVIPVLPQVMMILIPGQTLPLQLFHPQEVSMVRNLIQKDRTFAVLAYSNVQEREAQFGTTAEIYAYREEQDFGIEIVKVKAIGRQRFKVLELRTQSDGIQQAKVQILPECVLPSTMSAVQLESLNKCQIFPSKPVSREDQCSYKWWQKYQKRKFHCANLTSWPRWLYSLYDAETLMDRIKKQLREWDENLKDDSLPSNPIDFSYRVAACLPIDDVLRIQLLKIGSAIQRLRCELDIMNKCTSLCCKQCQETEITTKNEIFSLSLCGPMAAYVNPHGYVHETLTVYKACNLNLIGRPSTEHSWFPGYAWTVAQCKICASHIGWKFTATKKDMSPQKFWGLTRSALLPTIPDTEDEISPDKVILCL

T1 sequence (Q92731 whole entry): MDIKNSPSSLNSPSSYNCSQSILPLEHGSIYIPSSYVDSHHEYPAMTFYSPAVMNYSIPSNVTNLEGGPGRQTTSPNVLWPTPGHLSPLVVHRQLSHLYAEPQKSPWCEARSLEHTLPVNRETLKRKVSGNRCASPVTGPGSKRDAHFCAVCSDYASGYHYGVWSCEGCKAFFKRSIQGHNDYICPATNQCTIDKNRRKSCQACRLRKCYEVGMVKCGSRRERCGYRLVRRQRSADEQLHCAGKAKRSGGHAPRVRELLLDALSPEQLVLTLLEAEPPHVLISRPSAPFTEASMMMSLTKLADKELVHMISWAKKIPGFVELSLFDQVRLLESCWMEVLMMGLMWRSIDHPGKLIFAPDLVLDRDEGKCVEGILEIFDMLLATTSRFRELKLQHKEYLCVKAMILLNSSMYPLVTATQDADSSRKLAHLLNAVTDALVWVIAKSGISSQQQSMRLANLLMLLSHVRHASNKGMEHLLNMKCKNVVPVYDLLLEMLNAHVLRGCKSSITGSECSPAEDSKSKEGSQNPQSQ

| SMILES | IC50 (T47D [1]) [µM] | Ki (Estrogen receptor beta [2]) [µM] | IC50 (T47D [3]) [µM] | IC50 (MDA-MB-231) [µM] | Ki (Estrogen receptor) [µM] | Ratio Ki [4] | IC50 at 72 h (in vitro) [µM] | IC50 (T47D [5]) [µM] | Selectivity ratio [6] | RBA (Estrogen receptor beta [7]) [%] | IC50 (MCF7) [µM] | IC50 (cells) [µM] | Activity [8] |
| --- | --- | --- | --- | --- | --- | --- | --- | --- | --- | --- | --- | --- | --- |
| CCN(c1ccc(OCCCCCCCCC(=O)N[C@H](C(=O)N2C[C@H](O)C[C@H]2C(=O)NCc2ccc(-c3scnc3C)cc2)C(C)(C)C)cc1)S(=O)(=O)C1CC2OC1C(c1ccc(O)cc1)=C2c1ccc(O)cc1 (stereo partly drawn) | > 30 | 11.2 | > 30 | > 100 | 5.08 | 2.21 | > 100 | > 30 | 0.57 | 0.07 | > 10 | > 30 |  |
| O=C(COc1ccc(C2CCC(=O)NC2=O)cc1)NCCCCNC(=O)COc1ccc(N(CC(F)(F)F)S(=O)(=O)C2CC3OC2C(c2ccc(O)cc2)=C3c2ccc(O)cc2)cc1 (stereo not drawn) | 15.2 | 4.37 | 14.6 | > 100 | 1.27 | 3.44 | 9.45 | 17.7 | 0.89 | 0.18 | 0.69 | 14.5 | Active |
| CCN(c1ccc(OCCCCCCC(=O)N[C@H](C(=O)N2C[C@H](O)C[C@H]2C(=O)N[C@@H](C)c2ccc(-c3scnc3C)cc2)C(C)(C)C)cc1)S(=O)(=O)C1CC2OC1C(c1ccc(O)cc1)=C2c1ccc(O)cc1 (stereo partly drawn) | > 30 | 11.2 | > 30 | > 100 | 2.03 | 5.53 | > 100 | > 30 | 1.43 | 0.07 | 0.57 | > 30 |  |
| O=C(COc1cccc2c1C(=O)N(C1CCC(=O)NC1=O)C2=O)NCCCCCCCCOc1ccc(N(CC(F)(F)F)S(=O)(=O)C2CC3OC2C(c2ccc(O)cc2)=C3c2ccc(O)cc2)cc1 (stereo not drawn) | > 50 | 4.91 | > 50 | > 100 | 1.45 | 3.39 | > 100 | > 50 | 0.88 | 0.16 | > 50 | > 50 | inactive |
| CCN(c1ccc(OCCCCCC(=O)Nc2cccc3c2C(=O)N(C2CCC(=O)NC2=O)C3=O)cc1)S(=O)(=O)C1CC2OC1C(c1ccc(O)cc1)=C2c1ccc(O)cc1 (stereo not drawn) | > 100 | 4.37 | > 100 | > 100 | 0.97 | 4.52 | > 100 | > 100 | 1.17 | 0.18 | > 100 | > 100 | inactive |
| O=C(COc1cccc2c1C(=O)N(C1CCC(=O)NC1=O)C2=O)NCCCCCCOc1ccc(N(CC(F)(F)F)S(=O)(=O)C2CC3OC2C(c2ccc(O)cc2)=C3c2ccc(O)cc2)cc1 (stereo not drawn) | > 30 | 7.86 | 25.4 | > 100 | 1.85 | 4.26 | > 100 | > 30 | 1.1 | 0.1 | 11 | > 30 | Active |
| CCN(c1ccc(OCCCCCCCC(=O)N[C@H](C(=O)N2C[C@H](O)C[C@H]2C(=O)NCc2ccc(-c3scnc3C)cc2)C(C)(C)C)cc1)S(=O)(=O)C1CC2OC1C(c1ccc(O)cc1)=C2c1ccc(O)cc1 (stereo partly drawn) | > 30 | 7.86 | > 30 | > 100 | 0.75 | 10.4 | > 100 | > 30 | 2.7 | 0.1 | > 10 | > 30 |  |
| CCN(c1ccc(OCCCCCCC(=O)N[C@H](C(=O)N2C[C@H](O)C[C@H]2C(=O)NCc2ccc(-c3scnc3C)cc2)C(C)(C)C)cc1)S(=O)(=O)C1CC2OC1C(c1ccc(O)cc1)=C2c1ccc(O)cc1 (stereo partly drawn) | > 30 | 6.55 | > 30 | > 100 | 1.07 | 6.13 | > 100 | > 30 | 1.58 | 0.12 | 0.43 | > 30 |  |
| CCN(c1ccc(OCCCCCCCCCC(=O)N[C@H](C(=O)N2C[C@H](O)C[C@H]2C(=O)NCc2ccc(-c3scnc3C)cc2)C(C)(C)C)cc1)S(=O)(=O)C1CC2OC1C(c1ccc(O)cc1)=C2c1ccc(O)cc1 (stereo partly drawn) | > 30 | 9.83 | > 30 | > 100 | 3.38 | 2.9 | > 100 | > 30 | 0.75 | 0.08 | > 10 | > 30 |  |
| CC/C(=C(\c1ccc(O)cc1)c1ccc(OCCN(C)C)cc1)c1ccccc1 [AFIMOXIFENE] | 9.89 |  | 1.95 |  |  |  |  | 11.6 |  |  |  | 22.2 |  |
| O=C(COc1cccc2c1C(=O)N(C1CCC(=O)NC1=O)C2=O)NCCCCOc1ccc(N(CC(F)(F)F)S(=O)(=O)C2CC3OC2C(c2ccc(O)cc2)=C3c2ccc(O)cc2)cc1 (stereo not drawn) | > 50 | 11.2 | > 50 | > 100 | 3.38 | 3.32 | > 100 | > 50 | 0.86 | 0.07 | > 50 | > 50 | inactive |
| CCN(c1ccc(OCCCCC(=O)N[C@H](C(=O)N2C[C@H](O)C[C@H]2C(=O)NCc2ccc(-c3scnc3C)cc2)C(C)(C)C)cc1)S(=O)(=O)C1CC2OC1C(c1ccc(O)cc1)=C2c1ccc(O)cc1 (stereo partly drawn) | 7.27 | 6.05 | 3.03 | > 100 | 0.73 | 8.34 | 1.03 | 4.58 | 2.15 | 0.13 | 1.11 | 15.2 |  |
| CCN(c1ccc(OCCCCC(=O)N[C@H](C(=O)N2C[C@H](O)C[C@H]2C(=O)N[C@@H](C)c2ccc(-c3scnc3C)cc2)C(C)(C)C)cc1)S(=O)(=O)C1CC2OC1C(c1ccc(O)cc1)=C2c1ccc(O)cc1 (stereo partly drawn) | 18.1 | 7.15 | 14.2 | > 100 | 1.27 | 5.63 | 2.4 | 14.6 | 1.45 | 0.11 | 0.93 | 16.8 |  |
